# Results from patent US5614548A, “Quaternary amine containing ether or ester lipid derivatives and therapeutic compositions” (priority 1994, dated 1997).
# Tests used:
# HIV-1 [1] = test: HIV-1 plaque assay, inhibitor added 30 minutes before infection; type: cell-based, human immunodeficiency virus type 1 (HIV-1); settings: for Inhibition (%): HIV-1 plaque formation, Table 5
# Excerpt: Dextran sulfate was used as a positive control. […] Plaques were counted at five days after infection.
# (§1) By way of further background, in our assay HIV-1 syncytial plaques are seen as large, multicellular foci (10 to 25 nuclei/syncytium) that appear either brown and granular or clear. Since the number of HIV-1 syncytial plaques correlates with reverse transcriptase (RT) and p24 core antigen activity in the HIV-1 infected cell overlay fluids, the syncytial plaque assay can be used to quantify the amount of infectious virus. Reverse transcriptase activity was assayed according to a described procedure (B. J. Poeisz et al., Proc. Natl. Acad. Sci. (U.S.A.) […], 7415 (1980)). The activity of p24 core antigen induced by HIV-1 infection of CEM-SS cells was measured spectrophotometrically using the commercial Abbott EIA.
# Compound E inhibited HIV-1 plaque count 43%, 83%, and 91% at concentrations of 0.2, 0.4, and 2.0 μM, respectively, compared to untreated controls. […] In other experiments addition of 0.2, 0.4 and 2.0 μM Compound E starting sixty minutes after HIV-1 infection inhibited HIV-1 plaque formation 28%, 59% and 97% respectively, compared to untreated controls.
# [2] = system: HIV-1 binding to target T-cells; settings: in words; cited from earlier work
# 77 cells = test: Cytostatic activity on 77 cells; type: cell-based, rat; settings: for IC50: 77 cells, after controls doubled three times; for 77/KB: ratio of IC50 values ± standard error of the quotient
# Description: (§2) All cells were grown in Eagle's minimum essential medium supplemented with 10% fetal bovine serum with the exception of HL-60 and K562-4 cells which were grown in RPMI 1640 medium supplemented with 10% fetal bovine serum. The KB and MH1 C1 cells, from a human nasopharyngeal carcinoma and rat hepatoma, respectively, were from American Type Culture Collection. The ChaGo cells, a human lung carcinoma, was generously provided by Dr. A. H. Tashjian. The human promyeloblastic leukemia cells, K562-4 were kindly supplied by Dr. Bismarck Lozzio. HL-60 cells, a human promyelocytic leukemia, and P388 cells, a mouse leukemia, were obtained from Dr. Y.-C. Cheng. The 77 cells were put into culture by us by excising the 7777, Morris hepatoma from a rat graciously supplied by the late Dr. H. P. Morris.
# (§3) Cells were transferred or removed from monolayers for counting after a one or two minute incubation with 0.02% sodium ethylenediamine tetraacetate in phosphate-buffered saline to dislodge the cells. Flasks were seeded at a density of 1×10^3 cells per cm^2 or 2×10^4 per milliliter for suspension cultures. The HL-60 and K562-4 suspension cultures were used about 24 hours after seeding. The compounds to be tested were diluted to various concentrations and added to the monolayer cultures. All of the test compounds were dissolved in 10% dimethyl sulfoxide (DMSO) at concentrations that would give a final DMSO concentration of 0.1%. Control flasks contained 0.1% DMSO. Control cell replication was followed until approximately three doublings had occurred, and then all of the treated cells were counted.
# (§4) The KB cells represented cells with low alkyl cleavage activity (less than the detectable level of 0.1-0.2 units per milligram protein by our assay procedure) and the 77 cells represented cells similar to normal cells with relatively high alkyl cleavage activity (1.6 units per milligram of protein). Our value for the cleavage activity of cultured 77 cells agrees well with the value of 1.4 units per milligram of protein reported by Soodsma et al, Cancer Res. 30, 309 (1970), for freshly excised 7777 Morris hepatoma tissue. In further confirmation of our assay procedure, we obtained a value of 12.6±4.1 units per milligram of protein in excised rat liver compared to 7.3 units per milligram of protein in rat liver measured by Soodsma et al.
# KB cells [3] = test: Cytostatic activity on KB cells; type: cell-based; settings: Homo sapiens; KB cells, after controls doubled three times; read-out: IC50 KB
# Description: as §2, §3, §4
# HL-60 cells = test: Cytostatic activity on HL-60 cells; type: cell-based; settings: Homo sapiens
# Description: as §2
# as §3, with “The compounds to be tested were diluted to various concentrations and added to the monolayer cultures. All of the test compounds were dissolved in 10% dimethyl sulfoxide (DMSO) at concentrations that would give a final DMSO concentration of 0.1%. Control flasks contained 0.1% DMSO.” left out
# K562-4 cells = test: Cytostatic activity on K562-4 cells; type: cell-based; settings: Homo sapiens; K562-4 (printed X562-4)
# Description: as §2, §3
# [4] = system: P388 mouse leukemia cells; test: In vivo anti-tumor activity, P388 mouse leukemia; set-up: species or system mouse (BDF1 female mice); settings: for increased survival: days 1, 5, and 9
# Excerpt: P388 mouse leukemia cells were transplanted by intraperitoneal injection of 1×10^6 cells into BDF1 female mice on day 0. Treatments were begun on day 1. Control mice received the vehicle for the test compounds. […]
# KB cells [5] = test: Synergism with vincristine on KB cell number; type: cell-based, human
# Description: as §2, §3
# For example, 1 μM VIII reduced cell number to 45% of control and 0.004 μg per milliliter vincristine caused a reduction to 27% of control. Thus, the two agents together should have reduced cell number to 12% of control if they acted additively.
# [6] = system: herpes simplex virus type 2 (HSV-2); test: HSV-2 plaque formation in Vero cell monolayers; type: cell-based; settings: 2 μM, in words
# extracellular HSV-2 = test: Direct inactivation of extracellular HSV-2 infectivity; type: cell-based, herpes simplex virus type 2 (HSV-2); settings: 2 μM, in words
# HIV-1 [7] = test: Infectious HIV-1 multiplication (plaque forming units); type: cell-based, human immunodeficiency virus type 1 (HIV-1); settings: in words
# Description: (§5) In brief, CEM-SS cells were infected with HIV-1. At various times after infection (3, 6, 8, 10, 13 days) the overlay fluids were replaced with fresh medium. Overlay fluids replaced on days 8, 10 and 13 were saved at -80° C. to measure HIV-1 plaque forming units according to our described protocol above and RT activity (described by Poiesz et al., Proc. Natl. Acad. Sci. U.S.A. 77, 7415 (1980). Results are given in Table 8 below.
# reverse transcriptase = test: Reverse transcriptase activity in HIV-1 infected CEM-SS cells; type: cell-based, human immunodeficiency virus type 1 (HIV-1); settings: in words
# Description: as §1, §5
# extracellular HIV-1 = test: Direct inactivation of extracellular HIV-1 infectivity; type: cell-based, human immunodeficiency virus type 1 (HIV-1)
# Description: Since ether lipid (EL) analogs are membrane interactive, see, e.g. , A. Noseda et al., Biochim. Biophys. Acta 945, 92 (1988), we determined whether Compound E could directly inactivate extracellular HIV-1 infectivity. About 350 plaque forming units of HIV-1 were mixed with antiviral concentrations (2.0 μM) of E or with control medium alone in a total volume of 100 μl. After three hours of incubation at 37° C., the virus compound and virus medium mixtures were diluted 20-fold to reduce the concentration of Compound E below a significant antiviral concentration. Aliquots (100 μl) of the diluted HIV-1 were added to CEM-SS cell monolayers to measure residual virus infectivity by plaque count. A mean of 22 plaques (N=2) were counted for Compound E-treated HIV-1 and a mean of 27 plaques (N=2) for medium-treated HIV-1.
# ChaGo cells = test: Cytostatic activity on ChaGo cells; type: cell-based, human; settings: Homo sapiens
# Description: as §2, §3
# MH1 C1 cells = test: Cytostatic activity on MH1 C1 cells; type: cell-based, rat
# Description: as §2, §3
# P388 cells = test: Cytostatic activity on P388 cells; type: cell-based; settings: Mus musculus
# Description: as §2
# as §3, with “The compounds to be tested were diluted to various concentrations and added to the monolayer cultures. All of the test compounds were dissolved in 10% dimethyl sulfoxide (DMSO) at concentrations that would give a final DMSO concentration of 0.1%. Control flasks contained 0.1% DMSO.” left out
molecule,measurement,setting,value
Dextran Sulfate [reference compound],Inhibition (%),HIV-1 [1]; 1 μM,91%
same,Inhibition (%),"HIV-1 [1]; 1 μM, listed as dextran sulfate",92%
same,Inhibition (%),HIV-1 [1]; 2 μM,100%
same,Inhibition (%),HIV-1 [1]; 10 μM,100%
same,inhibition of HIV-1 binding to target T-cells,[2],a known inhibitor of HIV-1 binding to target T-cells
"CCCCCCCCCCCCCCCCOCC[N+](C)(C)CCCO.[I-] [VI, 2-hexadecyloxy-N,N-dimethyl-N-gamma-hydroxypropyl-1-ethyl ammonium iodide]",IC50,77 cells,2050 ± 910 nM
same,77/KB,77 cells,8.9 ± 4.79
same,IC50,KB cells [3],230 ± 70 nM
same,IC50,HL-60 cells,450 ± 11 nM
same,IC50,K562-4 cells,2200 ± 410 nM
same,increased survival,[4]; 50 mg/kg,26%
same,reduced survival,[4]; 75 mg/kg on days 1 and 2,48%
same,increased survival,[4]; 75 mg/kg,48%
same,in vivo activity against P388,[4]; in words,appeared to have in vivo activity against P388
same,survival time,[4]; one 50 mg/kg dose on day 1,did not affect survival time
same,lethality,[4]; single 100 mg/kg dose on day 1,killed all the mice by day 2
"CC[C@]1(O)C[C@H]2CN(CCc3c([nH]c4ccccc34)[C@@](C(=O)OC)(c3cc4c(cc3OC)N(C=O)[C@H]3[C@@](O)(C(=O)OC)[C@H](OC(C)=O)[C@]5(CC)C=CCN6CC[C@]43[C@@H]65)C2)C1 [vincristine, reference compound]","cell number, % of control",KB cells [5]; 0.004 μg per milliliter vincristine,27%
"CCCCCCCCCCCCCCCCSCC(C[N+](C)(C)CCO)OC.[I-] (racemic) [Compound 12, (±)-3-hexadecylthio-2-methoxy-N,N-dimethyl-N-β-hydroxyethyl-1-propyl ammonium iodide]",inhibition of HSV-2 plaque formation,[6],neither inhibits herpes simplex virus type 2 (HSV-2) plaque formation in Vero cell monolayers
same,inactivation of extracellular HSV-2 infectivity,extracellular HSV-2,nor directly inactivates extracellular HSV-2 infectivity
same,infectious virus production,HIV-1 [7]; 13 days,infectious virus production is still inhibited
same,infectious virus production,HIV-1 [7]; between 8 and 10 days,markedly inhibit infectious virus production
same,selectivity against HIV-1 plaque formation,"HIV-1 [1]; vs HSV-2, in words",selective inhibitory activity against HIV-1 plaque formation
same,reverse transcriptase activity,reverse transcriptase; 13 days,reverse transcriptase activity increases
same,reverse transcriptase activity,reverse transcriptase; between 8 and 10 days,markedly inhibit infectious virus production and reverse transcriptase activity in a dose-dependent manner
same,inactivation of extracellular HIV-1 infectivity,"extracellular HIV-1; 2.0 μM, in words",does not inactivate extracellular HIV-1 infectivity
same,mean residual plaques,"extracellular HIV-1; HIV-1 treated 2.0 μM, 3 hours, 37° C., diluted 20-fold, N=2 (medium: 27 plaques)",22 plaques
"CCCCCCCCCCCCCCCCCCOCC[N+](C)(C)CCO.[I-] [VIII, 2-octadecyloxy-N,N-dimethyl-N-β-hydroxyethyl-1-ethyl ammonium iodide]",IC50,77 cells,1800 ± 810 nM
same,77/KB,77 cells,5.8 ± 3.8
same,IC50,ChaGo cells,1000 nM
same,activity at 1 µM,"KB cells [5]; Homo sapiens, 1 μM VIII, read-out: cell number, % of control",45%
same,synergism with vincristine,KB cells [5]; in words,acted synergistically with vincristine against KB cells
same,IC50,KB cells [3],300 ± 140 nM
same,IC50,MH1 C1 cells; MH1 C1,7700 nM
same,sensitivity of MH1 C1 cells relative to 77 cells,MH1 C1 cells; MH1 C1 vs 77 cells,two to three times less sensitive to growth inhibition than 77 cells
same,IC50,"MH1 C1 cells; Rattus norvegicus, MH1C1, MH1 C1",6400 nM
same,IC50,K562-4 cells,1900 nM
same,IC50,P388 cells,420 nM
